From ChEMBL document CHEMBL2311313, “Inhibitors of HIV-1 attachment. Part 11: the discovery and structure-activity relationships associated with 4,6-diazaindole cores” (Bioorg Med Chem Lett, 2013) come the findings set out here.

Data set [1] in a line: Solubility of the compound in amorphous form at pH 6.5. The class given is physicochemical. The conditions noted are these: buffer.
Data set [2] concerns Human immunodeficiency virus 1. The data set can be described thus: Antiviral activity against HIV1 JRFL infected in human HeLa cells expressing CD4 and CCR5 after 3 days by luciferase reporter gene assay. The class given is functional, organism-based. The conditions noted are these: Human immunodeficiency virus 1, JRFL, 72 h. A general note: In a reporter assay the amount or activity of a reporter protein is the signal.

The nature of data set [3]: Cytotoxicity against human HeLa cells expressing CD4 and CCR5 assessed as cell viability after 6 days by XTT assay. The class given is cell-based. For orientation: Formazan colour is commonly taken as a measure of viable cells.
Data set [4] in a line: Therapeutic index, ratio of CC50 for human HeLa cells expressing CD4 and CCR5 to EC50 for HIV1 JRFL infected in human HeLa cells expressing CD4 and CCR5. The class given is cell-based. The conditions noted are these: read-out: Ratio CC50/EC50.
Data set [5] can be described thus: Clearance in rat at 1 mg/kg, iv. The class given is ADME, organism-based. Also noted: dose 1 mg/kg, route intravenous. The conditions noted are these: in vivo.
A short description of data set [6]: Oral bioavailability in rat at 5 mg/kg. The class given is ADME, organism-based. The conditions noted are these: in vivo.
Data set [7] in a line: AUC in rat at 5 mg/kg, po. The class given is ADME, organism-based. Also noted: dose 5 mg/kg, route oral. The conditions noted are these: plasma.

In brackets after ≈: the same amount, converted by molar mass. Where only a bound is given, the exact number is not on record here.

In general, solubility refers to the dissolved amount per volume that the medium holds. Higher therefore signals much dissolved substance. As a reminder, the EC50 is the concentration giving half of the maximal effect. Lower therefore signals a more potent agent. Take `COc1ccc(-c2ccn(-c3ncnc4c(C(=O)C(=O)N5CCN(C(=O)c6ccccc6)CC5)c[nH]c34)n2)cc1`: the concentration in solution in data set [1] (solubility) was 1 µg/mL (≈ 1.87 µM). The compound also displayed an EC50 in data set [2] of 0.24 nM.
In general, CC50 refers to the concentration giving 50% cytotoxicity. As to `N#Cc1ncnc2c(C(=O)C(=O)N3CCN(C(=O)c4ccccc4)CC3)c[nH]c12`, the CC50 at 144 h in data set [3] is > 300000 nM. A half-maximal response in data set [2] (EC50) required 44 nM.
Taken in the same sequence, the figures for `Cc1cnn(-c2ncnc3c(C(=O)C(=O)N4CCN(C(=O)c5ccccc5)CC4)c[nH]c23)c1` were > 300000 nM and 1.1 nM.
On to `CCOc1ncnc2c(C(=O)C(=O)N3CCN(C(=O)c4ccccc4)CC3)c[nH]c12`, for which the CC50 at 144 h in data set [3] was > 150000 nM. This compound returned an EC50 in data set [2] of 12 nM.
`CNCCCCNC(=O)c1ccn(-c2ncnc3c(C(=O)C(=O)N4CCN(C(=O)c5ccccc5)CC4)c[nH]c23)n1` had a solubility in data set [1] of 1730 µg/mL (≈ 3100 µM). In data set [2], this compound yielded an EC50 of 4.8 nM.
Take `Cc1cc(-c2ncnc3c(C(=O)C(=O)N4CCN(C(=O)c5ccccc5)CC4)c[nH]c23)on1`: the CC50 at 144 h in data set [3] is 177000 nM. The compound also returned an EC50 in data set [2] of 0.88 nM.
For `O=C(C(=O)N1CCN(C(=O)c2ccccc2)CC1)c1c[nH]c2c(-c3cnccn3)ncnc12`, the CC50 at 144 h in data set [3] came out at 78000 nM. Further, in data set [4], the selectivity ratio is > 15000. The compound also came in with an EC50 in data set [2] of 0.25 nM.
As to `O=C(C(=O)N1CCN(C(=O)c2ccccc2)CC1)c1c[nH]c2c(-n3ccc(-c4ccc(F)cc4)n3)ncnc12`, the EC50 in data set [2] was < 0.16 nM.
On to `O=C(C(=O)N1CCN(C(=O)c2ccccc2)CC1)c1c[nH]c2c(-c3ccccn3)ncnc12`, for which the CC50 at 144 h in data set [3] amounted to 6000 nM. In addition, the selectivity ratio in data set [4] was > 15000. For the same compound, in data set [2], the concentration for a half-maximal effect (EC50) amounted to 0.34 nM.
`COc1ccccc1-c1ccn(-c2ncnc3c(C(=O)C(=O)N4CCN(C(=O)c5ccccc5)CC4)c[nH]c23)n1` gave a solubility in data set [1] of 4 µg/mL (≈ 7.47 µM). The EC50 in data set [2] was found to be 0.36 nM.
For orientation: clearance means the rate of elimination divided by the concentration. Low readings indicate inefficient removal, high ones efficient removal. What is called bioavailability is the share of a dose that reaches the circulation, judged against a reference dose that is usually intravenous. Lower therefore signals little systemic uptake. For orientation: AUC means the area under the concentration-time curve, a measure of exposure. Read a high AUC as more exposure. For `Cc1ncn(-c2ncnc3c(C(=O)C(=O)N4CCN(C(=O)c5ccccc5)CC4)c[nH]c23)n1`, in data set [5], the clearance came out at 7.6 mL/min/kg. Also, the half-maximal cytotoxic concentration (CC50) at 144 h in data set [3] was > 150000 nM. Also, in data set [6], the bioavailability came out at 19%. Moreover, a half-maximal response in data set [2] (EC50) required 0.36 nM. This compound also came in with an AUC in data set [7] of 4.9 µM·h.
Turning to `O=C(C(=O)N1CCN(C(=O)c2ccccc2)CC1)c1c[nH]c2c(-c3ccnnc3)ncnc12`, in data set [3], the CC50 at 144 h was > 300000 nM. This compound also yielded a 50% effective concentration (EC50) in data set [2] of 5.2 nM.
Taken in the same sequence, the figures for `O=C(C(=O)N1CCN(C(=O)c2ccccc2)CC1)c1c[nH]c2c(-n3nccn3)ncnc12` were > 150000 nM and 11 nM.
For the compound `O=C(O)c1ccn(-c2ncnc3c(C(=O)C(=O)N4CCN(C(=O)c5ccccc5)CC4)c[nH]c23)n1`, the solubility in data set [1] worked out at 1070 µg/mL (≈ 2260 µM). The compound further came in with an EC50 in data set [2] of 0.76 nM.
In data set [2], `CN(C)C(=O)c1ccn(-c2ncnc3c(C(=O)C(=O)N4CCN(C(=O)c5ccccc5)CC4)c[nH]c23)n1` showed an EC50 of 2 nM.
On to `CC(=O)c1ncnc2c(C(=O)C(=O)N3CCN(C(=O)c4ccccc4)CC3)c[nH]c12`, for which the CC50 at 144 h in data set [3] was > 300000 nM. The EC50 in data set [2] is 18 nM.
In data set [5], `O=C(C(=O)N1CCN(C(=O)c2ccccc2)CC1)c1c[nH]c2c(-n3cncn3)ncnc12` gave a clearance of 35 mL/min/kg. Further, the CC50 at 144 h in data set [3] is > 300000 nM. In data set [6], the bioavailability worked out at 15%. This compound also had an EC50 in data set [2] of 0.1 nM. This compound also returned an AUC in data set [7] of 0.83 µM·h.
Consider `O=C(C(=O)N1CCN(C(=O)c2ccccc2)CC1)c1c[nH]c2c(-c3cc[nH]n3)ncnc12`, for which the half-maximal cytotoxic concentration (CC50) at 144 h in data set [3] was > 300000 nM. This compound had an EC50 in data set [2] of 0.31 nM.
For the compound `O=C(C(=O)N1CCN(C(=O)c2ccccc2)CC1)c1c[nH]c2c(-n3ccc(-c4ccccn4)n3)ncnc12`, in data set [1], the solubility amounted to 8 µg/mL (≈ 15.8 µM). Moreover, the EC50 in data set [2] worked out at 0.15 nM.
As to `O=C(C(=O)N1CCN(C(=O)c2ccccc2)CC1)c1c[nH]c2c(-c3cncnc3)ncnc12`, the CC50 at 144 h in data set [3] was > 300000 nM. This compound also yielded an EC50 in data set [2] of 2.7 nM.
With `O=C(C(=O)N1CCN(C(=O)c2ccccc2)CC1)c1c[nH]c2c(Cl)ncnc12`, the CC50 at 144 h in data set [3] was > 300000 nM. In addition, in data set [2], a half-maximal effect (EC50) was put at 11 nM.
For the compound `CN1CCN(c2ncnc3c(C(=O)C(=O)N4CCN(C(=O)c5ccccc5)CC4)c[nH]c23)CC1`, the CC50 at 144 h in data set [3] is > 300000 nM. Also, in data set [2], the EC50 was > 5000 nM.
Regarding `O=C(C(=O)N1CCN(C(=O)c2ccccc2)CC1)c1c[nH]c2c(-c3ccncc3)ncnc12`, the CC50 at 144 h in data set [3] is > 300000 nM. This compound also registered an EC50 in data set [2] of 12 nM.
As for `Cc1ccn(-c2ncnc3c(C(=O)C(=O)N4CCN(C(=O)c5ccccc5)CC4)c[nH]c23)n1`, the clearance in data set [5] came out at 4.8 mL/min/kg. In addition, in data set [3], the CC50 at 144 h was > 300000 nM. The compound also had a bioavailability in data set [6] of 45%. The concentration in solution in data set [1] (solubility) was 8 µg/mL (≈ 18 µM). For the same compound, the EC50 in data set [2] was 0.15 nM. In addition, in data set [7], the AUC stood at 17.8 µM·h.
On to `COc1ncnc2c(C(=O)C(=O)N3CCN(C(=O)c4ccccc4)CC3)c[nH]c12`, for which the CC50 at 144 h in data set [3] is > 300000 nM. Also, the EC50 in data set [2] was 4.1 nM.
`O=C(C(=O)N1CCN(C(=O)c2ccccc2)CC1)c1c[nH]c2c(-n3ccc(-c4ccccc4)n3)ncnc12`: the solubility in data set [1] is 1 µg/mL (≈ 1.98 µM). Further, it took 0.28 nM to reach a half-maximal effect in data set [2] (EC50).
`O=C(C(=O)N1CCN(C(=O)c2ccccc2)CC1)c1c[nH]c2c(-n3ccc(-c4cccc(C(F)(F)F)c4)n3)ncnc12` gave a solubility in data set [1] of 60 µg/mL (≈ 105 µM). Further, the EC50 in data set [2] was found to be 0.37 nM.
Turning to `O=C(C(=O)N1CCN(C(=O)c2ccccc2)CC1)c1c[nH]c2c(-c3cccnc3)ncnc12`, in data set [3], the CC50 at 144 h is > 300000 nM. Also, the midpoint of the response in data set [2], the EC50, lay at 1.3 nM.
